In ChEMBL document CHEMBL1165880, “'On water' assisted synthesis and biological evaluation of nitrogen and sulfur containing hetero-1,4-naphthoquinones as potent antifungal and antibacterial agents” (2010):
≈ marks a conversion by molar mass, not a printed value. Calls of active or inactive are those of the source. The calls are words filed in the database; no cut-off is given here.

What was measured:
Candida albicans = experiment: Antifungal activity against Candida albicans after 48 hrs by micro broth dilution method; format: functional
Cryptococcus neoformans = experiment: Antifungal activity against Cryptococcus neoformans after 72 hrs by micro broth dilution method; format: functional
[1] = system: Trichophyton mentagrophytes; experiment: Antifungal activity against Trichophyton mentagrophytes after 96 hrs by micro broth dilution method; format: functional
Aspergillus fumigatus = experiment: Antifungal activity against Aspergillus fumigatus after 72 hrs by micro broth dilution method; format: functional
Candida parapsilosis = experiment: Antifungal activity against Candida parapsilosis ATCC 22019 after 48 hrs by micro broth dilution method; format: functional
Escherichia coli = experiment: Antibacterial activity against Escherichia coli after 24 hrs by micro broth dilution method; format: functional
Staphylococcus aureus = experiment: Antibacterial activity against Staphylococcus aureus ATCC 25923 after 24 hrs by micro broth dilution method; format: functional
Klebsiella pneumoniae = experiment: Antibacterial activity against Klebsiella pneumoniae ATCC 27736 after 24 hrs by micro broth dilution method; format: functional
Pseudomonas aeruginosa = experiment: Antibacterial activity against Pseudomonas aeruginosa […] at 50 ug/ml after 24 hrs by micro broth dilution method; format: functional, organism-based

| Compound | MIC50 (Candida albicans) [µM] | MIC50 (Cryptococcus neoformans) [µM] | MIC50 [1] [µM] | MIC50 (Aspergillus fumigatus) [µM] | MIC50 (Candida parapsilosis) [µM] | MIC50 (Escherichia coli) [µM] | MIC50 (Staphylococcus aureus) [µM] | MIC50 (Klebsiella pneumoniae) [µM] | Activity (Pseudomonas aeruginosa) |
| --- | --- | --- | --- | --- | --- | --- | --- | --- | --- |
| O=C1C(Cl)=C(NNc2ccccc2)C(=O)c2ccccc21 | 10.4 (≈ 3.12 µg/mL) | 10.4 (≈ 3.12 µg/mL) | 1.31 (≈ 0.391 µg/mL) | 41.9 (≈ 12.5 µg/mL) | 20.9 (≈ 6.26 µg/mL) | 83.8 (≈ 25 µg/mL) | 83.8 (≈ 25 µg/mL) | 83.8 (≈ 25 µg/mL) | inactive |
| O=C(O)CC(SC1=C(Cl)C(=O)c2ccccc2C1=O)C(=O)O (stereo not given) | > 147 | 147 (≈ 50 µg/mL) | 36.7 (≈ 12.5 µg/mL) | 147 (≈ 50 µg/mL) | 147 (≈ 50 µg/mL) | 36.7 (≈ 12.5 µg/mL) | 147 (≈ 50 µg/mL) | 4.58 (≈ 1.56 µg/mL) | inactive |
| CCOC(=O)C(C)SC1=C(Cl)C(=O)c2ccccc2C1=O (stereo not given) | > 154 | 38.5 (≈ 12.5 µg/mL) | > 154 | > 154 | > 154 | 38.5 (≈ 12.5 µg/mL) | 38.5 (≈ 12.5 µg/mL) | 154 (≈ 50 µg/mL) |  |
| OC(Cn1cncn1)(Cn1cncn1)c1ccc(F)cc1F [FLUCONAZOLE] | 3.26 (≈ 0.998 µg/mL) | 1.63 (≈ 0.499 µg/mL) | 5.09 (≈ 1.56 µg/mL) |  | 3.26 (≈ 0.998 µg/mL) |  |  |  |  |
| O=C1C(Cl)=C(N2CCCC2)C(=O)c2ccccc21 | 11.9 (≈ 3.11 µg/mL) | 23.9 (≈ 6.24 µg/mL) | 1.49 (≈ 0.39 µg/mL) | 95.4 (≈ 25 µg/mL) | 23.9 (≈ 6.24 µg/mL) | 47.7 (≈ 12.5 µg/mL) | 95.4 (≈ 25 µg/mL) | 95.4 (≈ 25 µg/mL) | inactive |
| Cn1c(O)csc2c(=O)c3ccccc3c(=O)c1=2 | 3 (≈ 0.778 µg/mL) | 24.1 (≈ 6.25 µg/mL) | 3 (≈ 0.778 µg/mL) | 24.1 (≈ 6.25 µg/mL) | 6.02 (≈ 1.56 µg/mL) | 24.1 (≈ 6.25 µg/mL) | 3 (≈ 0.778 µg/mL) | 3 (≈ 0.778 µg/mL) | inactive |
| O=C1C(=O)c2ccccc2C(O)=C1Sc1ccccc1 | 177 (≈ 50 µg/mL) | > 177 | 177 (≈ 50 µg/mL) | > 177 | > 177 | 88.6 (≈ 25 µg/mL) | 177 (≈ 50 µg/mL) | 177 (≈ 50 µg/mL) | inactive |
| O=C1C(Cl)=C(N2CCCCC2)C(=O)c2ccccc21 | 5.66 (≈ 1.56 µg/mL) | 22.7 (≈ 6.26 µg/mL) | 1.42 (≈ 0.392 µg/mL) | 90.7 (≈ 25 µg/mL) | 11.3 (≈ 3.12 µg/mL) | 43.4 (≈ 12 µg/mL) | 90.7 (≈ 25 µg/mL) | 90.7 (≈ 25 µg/mL) | inactive |
| CN1CCN(C2=C(Cl)C(=O)c3ccccc3C2=O)CC1 | 5.38 (≈ 1.56 µg/mL) | 21.5 (≈ 6.26 µg/mL) | 1.34 (≈ 0.39 µg/mL) | 43.1 (≈ 12.5 µg/mL) | 21.5 (≈ 6.26 µg/mL) | 43.1 (≈ 12.5 µg/mL) | 43.1 (≈ 12.5 µg/mL) | 21.5 (≈ 6.26 µg/mL) | inactive |
| NC[C@H]1O[C@H](O[C@H]2[C@H](O)[C@@H](O[C@H]3O[C@H](CO)[C@@H](O)[C@H](N)[C@H]3O)[C@H](N)C[C@@H]2N)[C@H](O)[C@@H](O)[C@@H]1O [KANAMYCIN] |  |  |  |  |  | 33 (≈ 16 µg/mL) | 4.13 (≈ 2 µg/mL) | 66 (≈ 32 µg/mL) |  |
| NCC[C@H](O)C(=O)N[C@@H]1C[C@H](N)[C@@H](O[C@H]2O[C@H](CN)[C@@H](O)[C@H](O)[C@H]2O)[C@H](O)[C@H]1O[C@H]1O[C@H](CO)[C@@H](O)[C@H](N)[C@H]1O [AMIKACIN] |  |  |  |  |  | 1.71 (≈ 1 µg/mL) | 27.3 (≈ 16 µg/mL) | 1.71 (≈ 1 µg/mL) |  |
| Clc1ccc(COC(Cn2ccnc2)c2ccc(Cl)cc2Cl)c(Cl)c1 (stereo not given) [MICONAZOLE] | 60.1 (≈ 25 µg/mL) | 30 (≈ 12.5 µg/mL) | < 1.87 | 30 (≈ 12.5 µg/mL) |  |  |  |  |  |
| Cc1sc2c(=O)c3ccccc3c(=O)c=2n(C)c1O | 22.9 (≈ 6.25 µg/mL) | 11.4 (≈ 3.12 µg/mL) | 5.71 (≈ 1.56 µg/mL) | 22.9 (≈ 6.25 µg/mL) | 45.7 (≈ 12.5 µg/mL) | 5.71 (≈ 1.56 µg/mL) | 11.4 (≈ 3.12 µg/mL) | 11.4 (≈ 3.12 µg/mL) |  |
| O=C1C(Cl)=C(SCCS)C(=O)c2ccccc21 | 11 (≈ 3.12 µg/mL) | 11 (≈ 3.12 µg/mL) | 1.37 (≈ 0.39 µg/mL) | 87.8 (≈ 25 µg/mL) | 43.9 (≈ 12.5 µg/mL) | 87.8 (≈ 25 µg/mL) | 43.9 (≈ 12.5 µg/mL) | 21.9 (≈ 6.25 µg/mL) | inactive |
| GENTAMICIN |  |  |  |  |  | 0.38 | 1.63 | 0.82 |  |
| NYSTATIN | 8.42 | 3.78 |  |  |  |  |  |  |  |
| C[C@@H]1[C@H](O)[C@@H](C)/C=C/C=C/C=C/C=C/C=C/C=C/C=C/[C@H](O[C@@H]2O[C@H](C)[C@@H](O)[C@H](N)[C@@H]2O)C[C@@H]2O[C@](O)(C[C@@H](O)C[C@@H](O)[C@H](O)CC[C@@H](O)C[C@@H](O)CC(=O)O[C@H]1C)C[C@H](O)[C@H]2C(=O)O [AMPHOTERICIN B] | 0.42 (≈ 0.388 µg/mL) | 0.84 (≈ 0.776 µg/mL) | 1.69 (≈ 1.56 µg/mL) |  |  |  |  |  |  |
| CN1CCN(C2=CC(=O)c3c(O)ccc(O)c3C2=O)CC1 | > 173 | > 73.4 | > 173 | 173 (≈ 50 µg/mL) | 173 (≈ 50 µg/mL) | 173 (≈ 50 µg/mL) | 173 (≈ 50 µg/mL) | 173 (≈ 50 µg/mL) | inactive |
| NC[C@H]1O[C@H](O[C@H]2[C@H](O)[C@@H](O[C@H]3O[C@H](CO)[C@@H](O)[C@H](N)[C@H]3O)[C@H](N)C[C@@H]2N)[C@H](N)C[C@@H]1O [TOBRAMYCIN] |  |  |  |  |  | 1.07 (≈ 0.5 µg/mL) | 0.53 (≈ 0.248 µg/mL) | 2.14 (≈ 1 µg/mL) |  |
| O=C(O)CSC1=C(Cl)C(=O)c2ccccc2C1=O | 88.5 (≈ 25 µg/mL) | 88.5 (≈ 25 µg/mL) | 5.52 (≈ 1.56 µg/mL) | 177 (≈ 50 µg/mL) | 88.5 (≈ 25 µg/mL) | 44.2 (≈ 12.5 µg/mL) | 44.2 (≈ 12.5 µg/mL) | 22.1 (≈ 6.25 µg/mL) | inactive |
| COC(=O)CSC1=C(Cl)C(=O)c2ccccc2C1=O | > 168 | 168 (≈ 50 µg/mL) | 42.1 (≈ 12.5 µg/mL) | 168 (≈ 50 µg/mL) | 168 (≈ 50 µg/mL) | 42.1 (≈ 12.5 µg/mL) | 42.1 (≈ 12.5 µg/mL) | 42.1 (≈ 12.5 µg/mL) | inactive |
| O=C1C=C(N2CCCC2)C(=O)c2c(O)ccc(O)c21 | > 193 | > 193 | 96.4 (≈ 25 µg/mL) | > 193 | > 193 | 193 (≈ 50 µg/mL) | 193 (≈ 50 µg/mL) | 193 (≈ 50 µg/mL) | inactive |
| CCOC(=O)CSC1=C(Cl)C(=O)c2ccccc2C1=O | > 161 | 40.2 (≈ 12.5 µg/mL) | > 161 | > 161 | > 161 | 40.2 (≈ 12.5 µg/mL) | 40.2 (≈ 12.5 µg/mL) | 161 (≈ 50 µg/mL) |  |
| O=C1C(Cl)=C(N2CCOCC2)C(=O)c2ccccc21 [2-Chloro-3-morpholino-1,4-naphthoquinone] | 45 (≈ 12.5 µg/mL) | 22.5 (≈ 6.25 µg/mL) | 2.81 (≈ 0.78 µg/mL) | 90.1 (≈ 25 µg/mL) | 22.5 (≈ 6.25 µg/mL) | 45 (≈ 12.5 µg/mL) | 180 (≈ 50 µg/mL) | 22.5 (≈ 6.25 µg/mL) | inactive |
| C=CCNC1=C(Cl)C(=O)c2ccccc2C1=O | 50.5 (≈ 12.5 µg/mL) | 50.5 (≈ 12.5 µg/mL) | 3.15 (≈ 0.78 µg/mL) | 101 (≈ 25 µg/mL) | 50.5 (≈ 12.5 µg/mL) | 101 (≈ 25 µg/mL) | 101 (≈ 25 µg/mL) | 25.2 (≈ 6.25 µg/mL) | inactive |
